In patent publication US20220025334A1, “SYNTHETIC FOOD COMPOSITIONS” (Wild Type, Inc., priority 2018, published 2022):
“Also recorded” adds a separate entry of the source.

Test system: duck hepatocytes
Assay: Induction of steatosis in cultured duck hepatocytes by fatty acid incubation
Type: cell-based

- percentage of steatotic hepatocytes (2 μM linoleic acid, duck hepatocytes (FIG. 16B)): above 85%
SMILES: CCCCC/C=C\C/C=C\CCCCCCCC(=O)O [linoleic acid]
- dose response: linoleic acid concentration versus percentage of hepatocytes having steatosis (0, 0.1, 0.25, 0.5, 1, 2 μM linoleic acid (FIG. 16B)): corresponding increase in the percentage of hepatocytes with steatosis
- induction of steatosis (accumulation of intracellular lipid-containing vesicles) (2 μM linoleic acid vs untreated control, duck hepatocytes (FIG. 16A)): successful induction of steatosis; also recorded: successfully induced to undergo steatosis
